Target: T1, MAPKAPK5 (PRAK) (Homo sapiens, UniProt Q8IW41)
T1 construct: purchased Thermo Fisher Scientific (Life Technologies) SelectScreen
Assay: SelectScreen Z'LYTE
Assay type: biochemical
Method in brief: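 SelectScreen broad panel; activity (Z'LYTE, Adapta) plus binding formats. ATP: Km app for CSF1R Z'LYTE; 10 for CAMK1 Adapta. Readout = % per kinase.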

T1 sequence (Q8IW41 whole entry): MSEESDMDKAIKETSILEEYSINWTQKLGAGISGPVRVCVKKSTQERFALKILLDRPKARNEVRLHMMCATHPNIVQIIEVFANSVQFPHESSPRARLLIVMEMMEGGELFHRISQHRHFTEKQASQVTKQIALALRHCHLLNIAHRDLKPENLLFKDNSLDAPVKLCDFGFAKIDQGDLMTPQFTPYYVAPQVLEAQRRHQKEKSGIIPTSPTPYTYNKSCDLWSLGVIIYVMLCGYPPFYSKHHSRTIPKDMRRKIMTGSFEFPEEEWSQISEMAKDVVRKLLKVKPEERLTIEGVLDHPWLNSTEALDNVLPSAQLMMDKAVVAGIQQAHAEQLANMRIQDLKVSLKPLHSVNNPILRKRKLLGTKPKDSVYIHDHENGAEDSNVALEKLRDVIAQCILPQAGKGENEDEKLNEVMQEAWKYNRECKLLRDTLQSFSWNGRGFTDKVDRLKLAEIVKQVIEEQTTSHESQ

**Q.** `CN(C(=O)CN1CCOCC1)c1ccc2sc3c(-c4cccc5c(=O)cc(N6CC7CCC(C6)O7)oc45)cccc3c2c1` [NU5455] was tested. Which inhibition at 1 µM did it give?
**A.** Its inhibition at 1 µM is 0.6%.
